Experimental data published in US8703961B2, “Thiazole derivatives for the treatment of diseases such as cancer” (Merck Patent GmbH, priority 2009, dated 2014).

Key:
Experiment in all cases: filter binding kinase assay
Format in all cases: biochemical
PRKCA = biological target: T1, PRKCA (Homo sapiens, UniProt P17252); conditions: derived from % inhibition at 1 μM
T1 construct: purchased
Description: (§1) All kinase assays were carried out using the Multidrop 384 from Thermo-Fisher at room temperature in a total assay volume of 25.5 μl. 15 μl of an enzyme mix comprising enzyme and substrate in buffer are added to the test batch comprising either 0.5 μl of test substance, DMSO control or empty container. Test substances are pre-incubated in the presence of the enzyme and substrate for 5 minutes before the reaction is initiated by addition of 10 μl of ATP (concentration kinase-dependent of […]). The reaction is terminated by addition of 5 μl of orthophosphoric acid (50 mM). The test containers are then transferred onto P81 Unifilter plates by means of a “Packard Harvester” and dried in air. The dry Unifilter plates are sealed after the addition of MicroScint O, and the radioactivity is determined in a Packard Topcount NXT.

MARK2 = biological target: T2, MARK2 (Homo sapiens, UniProt Q7KZI7); conditions: for IC50: derived from % inhibition at 1 μM
T2 construct: purchased
Description: as §1

PRKACA = biological target: T3, PRKACA (Homo sapiens, UniProt P17612); conditions: derived from % inhibition at 1 μM
T3 construct: purchased
Description: as §1

MARK3 = biological target: T4, MARK3 (Homo sapiens, UniProt P27448); conditions: for IC50: derived from % inhibition at 1 μM
T4 construct: purchased
Description: as §1

MAPKAPK2 = biological target: T5, MAPKAPK2 (Homo sapiens, UniProt P49137); conditions: derived from % inhibition at 1 μM
T5 construct: purchased
Description: as §1

SGK = biological target: T6, SGK (Homo sapiens, UniProt O00141); conditions: derived from % inhibition at 1 μM
T6 construct: purchased
T6 sequence (O00141 1-431): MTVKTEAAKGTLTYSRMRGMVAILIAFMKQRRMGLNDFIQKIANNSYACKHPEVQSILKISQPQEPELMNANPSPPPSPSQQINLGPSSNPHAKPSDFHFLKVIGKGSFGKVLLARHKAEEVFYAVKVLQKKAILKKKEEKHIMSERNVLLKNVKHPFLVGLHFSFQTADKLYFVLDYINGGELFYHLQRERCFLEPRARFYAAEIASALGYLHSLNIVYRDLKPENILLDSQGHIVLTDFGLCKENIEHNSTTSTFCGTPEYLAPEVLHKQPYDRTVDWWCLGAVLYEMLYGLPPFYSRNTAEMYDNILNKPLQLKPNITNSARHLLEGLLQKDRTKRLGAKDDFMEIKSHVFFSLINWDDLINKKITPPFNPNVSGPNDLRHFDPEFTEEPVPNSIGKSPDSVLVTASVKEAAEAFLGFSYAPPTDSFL
Description: as §1

LCK = biological target: T7, LCK (Homo sapiens, UniProt P06239); conditions: derived from % inhibition at 1 μM
T7 construct: purchased
Description: as §1

FGFR1 = biological target: T8, FGFR1 (Homo sapiens, UniProt P11362); conditions: derived from % inhibition at 1 μM
T8 construct: purchased
Description: as §1

DYRK1A = biological target: T9, DYRK1A (Homo sapiens, UniProt Q13627); conditions: derived from % inhibition at 1 μM
T9 construct: purchased
Description: as §1

MAPK13 = biological target: T10, MAPK13 (Homo sapiens, UniProt O15264); conditions: derived from % inhibition at 1 μM
T10 construct: purchased
T10 sequence (O15264 1-365): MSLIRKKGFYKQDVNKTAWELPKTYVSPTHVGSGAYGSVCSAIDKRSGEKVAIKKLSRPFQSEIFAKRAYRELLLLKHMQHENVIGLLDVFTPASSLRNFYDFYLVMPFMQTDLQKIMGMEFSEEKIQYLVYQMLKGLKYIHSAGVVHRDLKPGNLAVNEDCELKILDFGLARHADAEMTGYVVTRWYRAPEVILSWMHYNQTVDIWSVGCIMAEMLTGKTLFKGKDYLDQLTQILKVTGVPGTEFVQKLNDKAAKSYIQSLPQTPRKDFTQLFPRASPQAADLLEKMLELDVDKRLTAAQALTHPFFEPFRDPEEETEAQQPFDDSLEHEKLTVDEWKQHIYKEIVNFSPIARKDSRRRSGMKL
Description: as §1

MKNK1 = biological target: T11, MKNK1 (Homo sapiens, UniProt Q9BUB5); conditions: derived from % inhibition at 1 μM
T11 construct: purchased
Description: as §1

MAPK1 = biological target: T12, MAPK1 (Homo sapiens, UniProt P28482); conditions: derived from % inhibition at 1 μM; first MAPK1 line
T12 construct: purchased
Description: as §1

PIM1 = biological target: T13, PIM1 (Homo sapiens, UniProt P11309); conditions: derived from % inhibition at 1 μM
T13 construct: purchased
Description: as §1

PIM3 = biological target: T14, PIM3 (Homo sapiens, UniProt Q86V86); conditions: derived from % inhibition at 1 μM
T14 construct: purchased
Description: as §1

INSR = biological target: T15, INSR (Homo sapiens, UniProt P06213); conditions: derived from % inhibition at 1 μM
T15 construct: purchased
Description: as §1

CSNK2A1 (CK2) = biological target: T16, CSNK2A1 (CK2) (Homo sapiens, UniProt P68400); conditions: for IC50: derived from % inhibition at 1 μM
T16 construct: purchased
Description: as §1

EPHA2 = biological target: T17, EPHA2 (Homo sapiens, UniProt P29317); conditions: derived from % inhibition at 1 μM
T17 construct: purchased
Description: as §1

DYRK2 = biological target: T18, DYRK2 (Homo sapiens, UniProt Q92630); conditions: derived from % inhibition at 1 μM
T18 construct: purchased
T18 sequence (Q92630 1-601): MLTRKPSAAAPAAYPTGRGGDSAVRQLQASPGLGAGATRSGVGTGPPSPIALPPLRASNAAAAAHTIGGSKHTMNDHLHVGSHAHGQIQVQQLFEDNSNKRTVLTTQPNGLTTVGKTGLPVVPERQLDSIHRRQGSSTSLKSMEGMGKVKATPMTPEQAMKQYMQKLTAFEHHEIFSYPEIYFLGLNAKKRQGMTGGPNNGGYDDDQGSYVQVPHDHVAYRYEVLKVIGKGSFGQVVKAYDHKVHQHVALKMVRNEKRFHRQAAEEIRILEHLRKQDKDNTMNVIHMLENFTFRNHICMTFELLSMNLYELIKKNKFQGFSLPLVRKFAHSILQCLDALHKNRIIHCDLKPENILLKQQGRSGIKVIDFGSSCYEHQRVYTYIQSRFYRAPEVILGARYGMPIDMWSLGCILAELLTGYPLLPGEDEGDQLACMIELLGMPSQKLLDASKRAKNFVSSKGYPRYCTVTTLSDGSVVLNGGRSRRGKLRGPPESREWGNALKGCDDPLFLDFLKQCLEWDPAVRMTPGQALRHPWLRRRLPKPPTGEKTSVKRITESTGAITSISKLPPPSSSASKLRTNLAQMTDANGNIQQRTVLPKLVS
Description: as §1

MAP3K9 = biological target: T19, MAP3K9 (Homo sapiens, UniProt P80192); conditions: derived from % inhibition at 1 μM
T19 construct: purchased
Description: as §1

BTK = biological target: T20, BTK (Homo sapiens, UniProt Q06187); conditions: derived from % inhibition at 1 μM
T20 construct: purchased
Description: as §1

T4 sequence (P27448 whole entry, species assumed): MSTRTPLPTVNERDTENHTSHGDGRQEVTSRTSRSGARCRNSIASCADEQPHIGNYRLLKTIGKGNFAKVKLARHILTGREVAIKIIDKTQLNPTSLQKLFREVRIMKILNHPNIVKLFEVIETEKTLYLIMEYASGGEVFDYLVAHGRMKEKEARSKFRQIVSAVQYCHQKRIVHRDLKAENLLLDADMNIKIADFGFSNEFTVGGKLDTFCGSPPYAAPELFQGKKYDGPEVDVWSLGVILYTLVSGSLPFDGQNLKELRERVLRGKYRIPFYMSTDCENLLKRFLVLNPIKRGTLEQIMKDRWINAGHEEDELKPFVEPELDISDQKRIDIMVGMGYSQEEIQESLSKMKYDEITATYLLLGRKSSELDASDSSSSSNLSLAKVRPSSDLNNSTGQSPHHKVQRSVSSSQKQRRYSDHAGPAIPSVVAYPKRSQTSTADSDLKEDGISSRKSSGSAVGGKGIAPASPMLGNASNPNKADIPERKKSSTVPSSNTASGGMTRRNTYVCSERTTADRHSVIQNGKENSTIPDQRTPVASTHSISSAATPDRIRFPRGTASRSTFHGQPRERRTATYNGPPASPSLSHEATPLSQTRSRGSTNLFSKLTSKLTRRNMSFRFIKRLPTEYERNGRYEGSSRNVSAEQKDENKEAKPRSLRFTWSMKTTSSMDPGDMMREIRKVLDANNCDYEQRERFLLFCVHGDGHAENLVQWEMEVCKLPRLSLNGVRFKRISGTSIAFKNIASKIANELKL
T5 sequence (P49137 whole entry, species assumed): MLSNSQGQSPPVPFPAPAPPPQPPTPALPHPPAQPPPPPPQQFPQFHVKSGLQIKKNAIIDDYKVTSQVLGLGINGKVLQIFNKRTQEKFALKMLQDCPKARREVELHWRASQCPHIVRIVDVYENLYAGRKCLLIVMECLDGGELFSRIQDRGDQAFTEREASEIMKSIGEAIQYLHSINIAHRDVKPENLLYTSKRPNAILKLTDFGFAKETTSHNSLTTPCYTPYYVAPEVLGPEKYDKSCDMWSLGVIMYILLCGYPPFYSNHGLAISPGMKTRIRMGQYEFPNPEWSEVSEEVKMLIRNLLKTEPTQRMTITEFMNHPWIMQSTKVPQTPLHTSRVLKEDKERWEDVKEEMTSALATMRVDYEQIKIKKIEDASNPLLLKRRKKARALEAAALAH
T11 sequence (Q9BUB5 whole entry, species assumed): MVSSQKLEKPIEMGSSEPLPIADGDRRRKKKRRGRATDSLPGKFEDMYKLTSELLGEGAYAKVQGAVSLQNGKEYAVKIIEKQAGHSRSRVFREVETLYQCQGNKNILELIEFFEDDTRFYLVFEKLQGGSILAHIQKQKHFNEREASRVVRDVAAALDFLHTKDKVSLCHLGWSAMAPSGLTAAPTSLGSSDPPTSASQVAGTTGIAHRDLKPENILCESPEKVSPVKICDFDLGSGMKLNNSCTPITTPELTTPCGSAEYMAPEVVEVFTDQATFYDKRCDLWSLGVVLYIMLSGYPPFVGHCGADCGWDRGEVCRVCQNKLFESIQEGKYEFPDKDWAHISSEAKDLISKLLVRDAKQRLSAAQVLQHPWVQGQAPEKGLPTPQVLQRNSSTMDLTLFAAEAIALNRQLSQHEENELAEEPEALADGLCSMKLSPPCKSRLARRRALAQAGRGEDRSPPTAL
T20 sequence (Q06187 whole entry, species assumed): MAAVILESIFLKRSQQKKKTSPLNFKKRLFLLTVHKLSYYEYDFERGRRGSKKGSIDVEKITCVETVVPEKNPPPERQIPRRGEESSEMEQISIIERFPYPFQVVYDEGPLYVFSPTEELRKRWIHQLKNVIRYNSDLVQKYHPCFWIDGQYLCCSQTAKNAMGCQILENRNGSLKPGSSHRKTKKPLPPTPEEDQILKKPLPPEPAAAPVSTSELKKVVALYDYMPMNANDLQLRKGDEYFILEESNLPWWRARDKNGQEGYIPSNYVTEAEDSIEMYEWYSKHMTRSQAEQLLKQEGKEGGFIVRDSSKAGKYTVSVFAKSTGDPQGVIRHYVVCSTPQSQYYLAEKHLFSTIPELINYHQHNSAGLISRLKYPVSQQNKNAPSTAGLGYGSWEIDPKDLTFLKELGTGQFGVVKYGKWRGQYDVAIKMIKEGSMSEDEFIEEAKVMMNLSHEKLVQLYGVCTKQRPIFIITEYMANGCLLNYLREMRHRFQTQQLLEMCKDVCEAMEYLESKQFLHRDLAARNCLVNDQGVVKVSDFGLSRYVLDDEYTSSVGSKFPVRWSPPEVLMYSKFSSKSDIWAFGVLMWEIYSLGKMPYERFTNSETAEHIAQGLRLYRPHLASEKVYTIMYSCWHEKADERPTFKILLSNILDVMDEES
T12 sequence (P28482 whole entry, species assumed): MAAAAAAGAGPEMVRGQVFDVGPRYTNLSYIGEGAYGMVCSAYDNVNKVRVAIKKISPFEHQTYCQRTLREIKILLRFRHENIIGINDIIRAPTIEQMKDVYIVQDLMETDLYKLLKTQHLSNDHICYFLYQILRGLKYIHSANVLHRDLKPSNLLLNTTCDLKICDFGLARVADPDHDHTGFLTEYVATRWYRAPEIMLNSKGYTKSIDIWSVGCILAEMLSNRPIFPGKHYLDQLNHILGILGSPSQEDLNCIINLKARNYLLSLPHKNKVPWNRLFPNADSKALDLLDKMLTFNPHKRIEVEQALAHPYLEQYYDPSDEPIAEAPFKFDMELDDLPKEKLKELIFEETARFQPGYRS
T13 sequence (P11309 whole entry, species assumed): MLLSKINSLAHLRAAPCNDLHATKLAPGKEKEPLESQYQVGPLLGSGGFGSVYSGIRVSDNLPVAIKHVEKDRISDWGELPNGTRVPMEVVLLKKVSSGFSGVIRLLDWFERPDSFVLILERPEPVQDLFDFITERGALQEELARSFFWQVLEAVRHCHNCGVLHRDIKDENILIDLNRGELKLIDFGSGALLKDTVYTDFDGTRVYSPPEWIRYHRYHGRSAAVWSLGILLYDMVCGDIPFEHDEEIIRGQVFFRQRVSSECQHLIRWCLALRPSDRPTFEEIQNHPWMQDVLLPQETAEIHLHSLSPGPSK
T16 sequence (P68400 whole entry, species assumed): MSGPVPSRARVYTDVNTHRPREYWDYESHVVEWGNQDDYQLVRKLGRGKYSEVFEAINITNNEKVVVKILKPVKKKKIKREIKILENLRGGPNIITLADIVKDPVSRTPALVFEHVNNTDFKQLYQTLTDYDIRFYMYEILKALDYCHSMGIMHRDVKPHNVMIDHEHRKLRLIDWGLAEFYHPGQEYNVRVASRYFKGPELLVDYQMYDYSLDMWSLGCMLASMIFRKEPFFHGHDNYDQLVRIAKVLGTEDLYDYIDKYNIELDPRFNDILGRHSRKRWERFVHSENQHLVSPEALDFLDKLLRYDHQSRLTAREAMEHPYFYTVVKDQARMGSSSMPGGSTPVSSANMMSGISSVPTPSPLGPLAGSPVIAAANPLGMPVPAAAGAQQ
T8 sequence (P11362 22-822, species assumed): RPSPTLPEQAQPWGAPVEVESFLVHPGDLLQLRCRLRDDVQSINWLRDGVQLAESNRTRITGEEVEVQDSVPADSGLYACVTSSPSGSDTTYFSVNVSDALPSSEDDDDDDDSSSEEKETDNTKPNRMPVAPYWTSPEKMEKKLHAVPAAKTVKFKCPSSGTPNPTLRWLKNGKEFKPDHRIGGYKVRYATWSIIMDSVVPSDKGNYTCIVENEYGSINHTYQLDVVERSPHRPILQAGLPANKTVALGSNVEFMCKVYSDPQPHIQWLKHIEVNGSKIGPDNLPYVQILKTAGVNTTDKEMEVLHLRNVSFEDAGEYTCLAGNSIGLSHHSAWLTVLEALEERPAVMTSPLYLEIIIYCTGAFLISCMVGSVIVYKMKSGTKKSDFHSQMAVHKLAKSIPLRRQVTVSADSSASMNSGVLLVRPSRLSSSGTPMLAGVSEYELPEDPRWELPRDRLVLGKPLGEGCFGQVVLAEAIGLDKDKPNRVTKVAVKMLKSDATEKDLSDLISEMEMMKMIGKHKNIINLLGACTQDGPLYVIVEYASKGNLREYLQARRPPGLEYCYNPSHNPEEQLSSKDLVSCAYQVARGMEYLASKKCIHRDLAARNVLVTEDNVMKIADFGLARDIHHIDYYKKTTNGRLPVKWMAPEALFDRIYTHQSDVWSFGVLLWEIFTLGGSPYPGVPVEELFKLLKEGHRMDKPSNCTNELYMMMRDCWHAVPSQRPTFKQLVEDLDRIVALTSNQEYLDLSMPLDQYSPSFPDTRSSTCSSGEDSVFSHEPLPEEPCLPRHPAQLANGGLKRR

Row | SMILES | IC50 (PRKCA) | IC50 (MARK2) | IC50 (PRKACA) | IC50 (MARK3) | IC50 (MAPKAPK2) | IC50 (SGK) | IC50 (LCK) | IC50 (FGFR1) | IC50 (DYRK1A) | IC50 (MAPK13) | IC50 (MKNK1) | IC50 (MAPK1) | IC50 (PIM1) | IC50 (PIM3) | IC50 (INSR) | IC50 (EPHA2) | IC50 (DYRK2) | IC50 (MAP3K9) | IC50 (BTK) | IC50 (CSNK2A1 (CK2)) | further results
1 | c1ccc(Cc2c[nH]c3ncsc23)cc1 [Compound A7, 6-benzyl-4H-pyrrolo[2,3-d]thiazole] | 10 to 100 µM | 10 to 100 µM | > 1 µM | 1 to 10 µM | > 1 µM | > 1 µM | 10 to 100 µM | 1 to 10 µM | > 1 µM | 1 to 10 µM | > 1 µM | > 1 µM | 10 to 100 µM | 1 to 10 µM | > 1 µM | 10 to 100 µM | > 1 µM | 1 to 10 µM | 10 to 100 µM | – | remaining activity at 1 µM (CSNK2A1 (CK2); read-out: residual kinase activity CK2): 53%
2 | Nc1ncsc1C#Cc1cnc2[nH]ccc2c1 [Compound A22, 5-(1H-pyrrolo[2,3-b]pyridin-5-ylethynyl)thiazol-4-ylamine] | 1 to 10 µM | 0.01 to 1 µM | 1 to 10 µM | 0.01 to 1 µM | > 1 µM | 1 to 10 µM | > 1 µM | 1 to 10 µM | > 1 µM | 10 to 100 µM | 10 to 100 µM | 10 to 100 µM | 1 to 10 µM | 10 to 100 µM | 10 to 100 µM | > 1 µM | > 1 µM | 1 to 10 µM | 10 to 100 µM | > 1 µM | remaining activity at 1 µM (MARK2; read-out: residual kinase activity MARK2): 31%; remaining activity at 1 µM (MARK3; read-out: residual kinase activity MARK3): 15%
3 | CC(C)(C)OC(=O)Nc1nc(-c2ccncc2)sc1C#CCN1CCOCC1 [Compound A25, tert-butyl[5-(3-morpholin-4-ylprop-1-ynyl)-2-pyridin-4-ylthiazol-4-yl]-carbamate] | 10 to 100 µM | > 1 µM | > 1 µM | > 1 µM | > 1 µM | 10 to 100 µM | > 1 µM | > 1 µM | > 1 µM | > 1 µM | > 1 µM | > 1 µM | > 1 µM | > 1 µM | > 1 µM | > 1 µM | > 1 µM | > 1 µM | 10 to 100 µM | > 1 µM | –
4 | CC(C)(C)OC(=O)Nc1ncsc1C#CCN1C(=O)c2ccccc2C1=O [Compound A26, tert-butyl{5-[3-(1,3-dioxo-1,3-dihydroisoindol-2-yl)prop-1-ynyl]-thiazol-4-yl}carbamate] | 1 to 10 µM | 1 to 10 µM | 10 to 100 µM | 1 to 10 µM | 10 to 100 µM | 1 to 10 µM | > 1 µM | 1 to 10 µM | 10 to 100 µM | 10 to 100 µM | > 1 µM | 10 to 100 µM | 10 to 100 µM | > 1 µM | 1 to 10 µM | > 1 µM | > 1 µM | 1 to 10 µM | > 1 µM | 10 to 100 µM | –
5 | Nc1ncsc1C#Cc1cccc(O)c1 [Compound A27, 3-(4-aminothiazol-5-ylethynyl)phenol] | > 1 µM | 10 to 100 µM | 1 to 10 µM | 10 to 100 µM | 10 to 100 µM | > 1 µM | 1 to 10 µM | > 1 µM | 10 to 100 µM | 1 to 10 µM | 10 to 100 µM | 1 to 10 µM | 1 to 10 µM | 1 to 10 µM | 10 to 100 µM | > 1 µM | 1 to 10 µM | 1 to 10 µM | 10 to 100 µM | > 1 µM | –
